Experimental data from patent EP0928793B1, “Thiazole derivatives” (F. HOFFMANN-LA ROCHE AG, priority 1998, dated 1999).

Biological target: T1, vitronectin receptor αvβ3 (Homo sapiens, UniProt P05106+P06756)
T1 construct: Human placenta is stored at -80°C immediately after its excision; In order to extract the receptor; from tissue; host or cells: human placenta
Test: Inhibition of fibrinogen binding to immobilised vitronectin receptor αvβ3 (ELISA)
Settings: fibrinogen 1.5 µg/ml, receptor from human placenta coated on microtitre plates, overnight at room temperature, ELISA detection; read-out: VNR IC50
Method: The inhibition of the binding of adhesive proteins such as e.g. fibrinogen to vitronectin receptors (such as e.g. αvβ3, αvβ5, αvβ6, αvβ8, etc. or to the fibrinogen receptor (αIIbβ3) by compounds of formula I can be determined as described by L. Alig et al. (J.Med.Chem. 1992, 35, 4393-4407).
In detail thereto, the wells of microtitre plates (Nunc-Immunoplate MaxiSorp) were coated overnight at 4°C with the vitronectin receptor αvβ3 (from human placenta, 100 µl/well) in a buffer system with 150 mmol/l NaCl, 1 mmol/CaCl2, 1 mmol/l MgCl2, 0.0005% Triton X-100 and 20 mmol/l Tris HCl, pH 7.4. The non-specific binding sites were blocked by incubation with 3.5% bovine serum albumin (BSA from Fluka) at 20°C for at least 1 h. Before the beginning of the test the plates were washed in each case once with 150 mmol/l NaCl, 1 mmol/l CaCl2, 1 mmol/l MgCl2 and 20 mmol/l Tris HCI, pH 7.4 (buffer A). The thus-coated plates can be stored for at least 2 months in the presence of 0.05% NaN3 (in buffer A) at 4°C in a humidity chamber without loss of binding activity. Fibrinogen (IMCO, free from fibronectin) was diluted to 1.5 µg/ml in buffer A in the presence of 1% BSA. The wells coated with the receptor were incubated with fibrinogen (100 µl/well) overnight at room temperature in the absence of or in the presence of increasing concentrations of RGDS (as the reference substance) or the compounds to be measured. Non-bound fibrinogen was removed by three-fold washing with buffer A and bound fibrinogen was detected by an ELISA procedure. Antibodies of rabbits directed against human fibrinogen (Dakopatts, Denmark), diluted in buffer A in the presence of 0.1% BSA, were added at room temperature for 1h., followed by incubation with biotinylated antibodies directed against rabbit immunoglobulin (Amersham) for 30 min. Non-bound antibodies were removed by three-fold washing with buffer A. Thereafter, the pre-formed streptavidin-biotinylated peroxidase complex (Amersham) was added for 30 min. Three-fold washing with buffer A was again carried out. After addition of the peroxidase substrate ABTS (2,2'-azino-bis(3-ethylbenzothiazoline-6-sulphonic acid), Boehringer Mannheim) the enzyme activity was measured with a multichannel photometer (UVmax, Molecular Devices). The difference between total binding activity (in the absence of a test substance) and non-specific binding activity (in the presence of 100 µM RGDS) is taken as the specific binding activity. The concentration of a test substance which is required to inhibit the specific binding activity by 50% was defined as the IC50.
The isolation of the receptor avb3 used in the test can be carried out as follows: Human placenta is stored at -80°C immediately after its excision. In order to extract the receptor, each placenta is superficially thawed and cut into narrow strips with a scalpel. The pieces are washed twice with a buffer of 150 mmol/l NaCl, 1 mmol/l CaCl2, 1 mmol/l MgCl2 and 20 mmol/l Tris HCl (pH 7.4). The proteins are extracted at room temperature for one hour with a buffer solution from 1% Triton X-100, 150 mmol/l NaCl, 1 mmol/l CaCl2, 1 mmol/l MgCl2, 20 mmol/l Tris HCl, 0.02% NaN3, 0.5 mmol/l phenylmethanesulphonyl fluoride, 1 mmol/l leupeptin and 2 mmol/l N-ethylmaleimide (pH 7.4) and filtered through sterile gauze. The filtrate is centrifuged at 30000 g for 30 min. at 4°C. The glycoproteins are firstly separated with the aid of a concanavalin A-Sepharose 4B column. The proteins bound to the column are eluted and then added to a Aeg-RGDS column. After repeated washing the bound vitronectin receptor is eluted by 3 mmol/l RGDS in a buffer of 0.1% Triton X-100, 150 mmol/l NaCl, 20 mmol/l Tris HCl, 1 mmol/l CaCl2, 1 mmol/l MgCl2, 0.05% NaN3 (pH 7.0).

T1 sequence (P06756 31-889 limits assumed): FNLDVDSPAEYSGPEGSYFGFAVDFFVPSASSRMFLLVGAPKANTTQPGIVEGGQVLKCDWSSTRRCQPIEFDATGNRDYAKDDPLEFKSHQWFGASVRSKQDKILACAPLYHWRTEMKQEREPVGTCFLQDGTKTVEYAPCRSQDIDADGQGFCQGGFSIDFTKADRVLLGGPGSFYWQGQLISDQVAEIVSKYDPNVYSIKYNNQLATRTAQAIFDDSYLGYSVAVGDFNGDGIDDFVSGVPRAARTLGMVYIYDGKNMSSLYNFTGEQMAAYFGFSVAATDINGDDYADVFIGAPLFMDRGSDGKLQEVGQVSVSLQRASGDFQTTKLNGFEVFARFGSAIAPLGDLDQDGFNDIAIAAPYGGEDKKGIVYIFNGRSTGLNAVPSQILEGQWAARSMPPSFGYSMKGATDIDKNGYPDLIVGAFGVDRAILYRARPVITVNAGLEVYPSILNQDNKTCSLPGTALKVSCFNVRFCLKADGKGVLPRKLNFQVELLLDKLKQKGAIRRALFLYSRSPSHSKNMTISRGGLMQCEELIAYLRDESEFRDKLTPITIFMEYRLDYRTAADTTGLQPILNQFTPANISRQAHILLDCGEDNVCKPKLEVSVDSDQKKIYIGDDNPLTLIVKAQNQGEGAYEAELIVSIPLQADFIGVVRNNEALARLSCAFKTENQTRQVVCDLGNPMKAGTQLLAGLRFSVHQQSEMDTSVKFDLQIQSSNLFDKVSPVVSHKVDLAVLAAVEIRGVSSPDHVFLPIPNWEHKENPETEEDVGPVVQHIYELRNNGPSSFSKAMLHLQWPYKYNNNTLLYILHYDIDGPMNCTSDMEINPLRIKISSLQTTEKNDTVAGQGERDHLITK
T1 sequence (P06756 891-1048 partner limits assumed): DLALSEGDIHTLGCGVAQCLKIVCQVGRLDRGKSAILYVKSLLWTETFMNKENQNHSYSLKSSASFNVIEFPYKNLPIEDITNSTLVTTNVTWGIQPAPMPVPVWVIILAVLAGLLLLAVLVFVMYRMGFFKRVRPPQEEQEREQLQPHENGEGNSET
T1 sequence (P05106 27-788): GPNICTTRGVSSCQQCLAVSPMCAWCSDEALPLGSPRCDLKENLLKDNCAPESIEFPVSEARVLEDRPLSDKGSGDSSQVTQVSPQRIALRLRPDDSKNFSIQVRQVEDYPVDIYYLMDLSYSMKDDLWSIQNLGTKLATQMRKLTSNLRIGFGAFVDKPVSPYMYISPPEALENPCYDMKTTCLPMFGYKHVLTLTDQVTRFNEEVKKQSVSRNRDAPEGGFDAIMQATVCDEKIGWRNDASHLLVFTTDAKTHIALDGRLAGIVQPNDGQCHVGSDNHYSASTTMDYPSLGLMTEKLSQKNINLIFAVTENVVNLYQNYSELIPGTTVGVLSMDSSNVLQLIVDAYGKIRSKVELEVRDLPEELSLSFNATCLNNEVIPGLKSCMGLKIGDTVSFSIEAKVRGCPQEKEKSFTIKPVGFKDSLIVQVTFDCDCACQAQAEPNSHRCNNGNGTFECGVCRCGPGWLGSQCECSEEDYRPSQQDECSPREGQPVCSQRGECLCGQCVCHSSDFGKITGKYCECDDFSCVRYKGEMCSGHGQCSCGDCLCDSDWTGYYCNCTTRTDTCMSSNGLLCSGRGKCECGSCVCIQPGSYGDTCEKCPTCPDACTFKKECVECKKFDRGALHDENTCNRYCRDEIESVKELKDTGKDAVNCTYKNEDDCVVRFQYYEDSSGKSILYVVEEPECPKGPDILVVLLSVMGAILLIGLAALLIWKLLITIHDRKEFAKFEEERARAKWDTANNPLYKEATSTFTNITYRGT

IC50 [µM] | SMILES
0.039 | Cc1nc(N=C(N)N)sc1C(=O)N1CCCC(COCC(=O)O)C1 (racemic) [rac [1-(2-guanidino-4-methyl-thiazole-5-carbonyl)-piperidin-3-ylmethoxy]-acetic acid]
0.018 | CCCc1nc(N=C(N)N)sc1C(=O)N1CCCC(COCC(=O)O)C1 (racemic) [rac [1-(2-guanidino-4-propyl-thiazole-5-carbonyl)-piperidin-3-ylmethoxy]-acetic acid]
0.022 | CC(C)(C)c1nc(N=C(N)N)sc1C(=O)N1CCCC(COCC(=O)O)C1 (racemic) [rac [1-(4-tert-butyl-2-guanidino-thiazole-5-carbonyl)-piperidin-3-ylmethoxy]-acetic acid]

Continued, compound first:

SMILES | IC50 [µM]
NC(N)=Nc1nc(-c2ccccc2)c(C(=O)N2CCCC(COCC(=O)O)C2)s1 (racemic) [rac [1-(2-guanidino-4-phenyl-thiazole-5-carbonyl)-piperidin-3-ylmethoxy]-acetic acid] | 0.07
NC(N)=Nc1nc(C2CCCC2)c(C(=O)N2CCCC(COCC(=O)O)C2)s1 (racemic) [rac [1-(4-cyclopentyl-2-guanidino-thiazol-5-ylcarbonyl)-piperidin-3-ylmethoxy]-acetic acid] | 0.09
Cc1nc(NC(=N)N)sc1C(=O)N1CCC[C@@H](COCC(=O)O)C1 [(R)-[1-(2-guanidino-4-methyl-thiazole-5-carbonyl)-piperidin-3-ylmethoxy]-acetic acid] | 0.05
